Read-outs that look alike come from different tables or passages of the source.

Data on five compounds can be found in publication PMC10257182, “Discovery of senolytics using machine learning” (Nature Communications, 2023).

This assay relates to senescent IMR90 ER:RAS cells (4-OHT-induced). Nature of the assay: Nuclei count (Hoechst, high content imaging) senolytic assay, oncogene-induced senescence (OIS) model, senescent cells. In kind it is cell-based, human. Conditions: for senolytic activity (in words): experimental screen. The text has this: To test for senolytic activity, we compared the effect of each compound on the total cell number (automated high content image-based analysis of total number of nuclei per well) in non-senescent and senescent IMR90 ER:RAS cultures treated with the top hits from the computational screen (Figs. 2e and 3a–d and Supplementary Fig. 4a–c). The drop in cell number compared to untreated controls is indicated by the nuclei count and reflects cell death[13],[15]. As positive control, we employed ouabain, a cardiac glycoside with well characterised senolytic activity.
We performed experimental validation of the compounds with z-score > 8 (Fig. 2e). […] We employed two cellular models of senescence: one of OIS and a second one of TIS. For the OIS case, we utilised IMR90 ER:RAS cells with 4-OHT at 100 nM. […] For the TIS model, we used A549 cells with etoposide at 100 μM. The exposure of the cells to etoposide lasted 48 h, after which period the cells were cultivated for a further three days with normal media.
IMR90 (CCL-186) human foetal lung fibroblasts and A549 (CCL-185) human lung adenocarcinoma cells were obtained from the American Type Culture Collection (ATCC, Manassas, VA). The cell lines were confirmed to be mycoplasma negative (Lonza MycoAlert, cat #LT07-118). IMR90 ER:RAS is a derivative of IMR90 cells expressing a switchable version of oncogenic H-Ras[84]. IMR90 ER:RAS and A549 cells were maintained in Dulbecco’s Modified Eagle Medium (DMEM, ThermoFisher) supplemented with foetal bovine serum (10%), L-glutamine (2 mM, ThermoFisher), and antibiotic-antimycotic solution (1%, ThermoFisher) and incubated under standard tissue culture conditions (37 °C and 5% CO2). For induction of the senescent phenotype, IMR90-ER:RAS cells were cultured in hydroxytamoxifen (4-OHT) (Sigma) added media at 100 nM final concentration. IMR90 were kept in culture for over 27 passages for replicative senescence. Cells were tested for mycoplasma on a regular basis.
Cells were seeded (50 μL per well) into 384-well plates (IMR90 ER:RAS cells in Nunc Optical Bottom Polybase Microplates [#142761, Thermo Scientific, Rochester, NY] and A549 cells in CELLSTAR Cell Culture Microplates [#781091, Greiner Bio-One, Kremsmünster, Austria]). Cells were incubated under standard tissue culture conditions for 24 h before the addition of compounds. Passage 14 IMR90 ER:RAS cells were seeded at 1300 cells per well in the control condition, and at 1600 cells per well in the senescent case. Passage 34 A549 cells were seeded at 7000 cells per well in the control condition, and at 10,000 cells per well in the senescent case.
Dose response plates were prepared with a DMSO control and a 10-point […] concentration range, and added to the compounds using a D300e digital dispenser (Tecan Trading AG, Switzerland) at a final concentration of between 10 μM and 10 nM. Every screened condition was carried out in triplicate. After 72 h of incubation with exposure to the compounds, cells were fixed by the addition of an equal volume of formaldehyde (8%, 50 μL; #BP531-500, Fisher Bioreagents, Fisher Scientific, Loughborough, Leicestershire) to the existing media, incubated at room temperature (30 min), and washed three times in phosphate-buffered saline (PBS). Cells were then permeabilised in Triton-X100 (0.1%, 50 μL) and incubated at room temperature (30 min) followed by three more washes with PBS.
Cells were stained with Hoechst 33342 for nuclei count (excitation/emission wavelength at 387/447 […], DAPI channel, original concentration at 10 mg/ml, final concentration at 2 μg/ml; H1399, Molecular Probes, Eugene, OR). The staining solution was prepared in bovine serum albumin solution (10%). The staining solution was added to each well (30 μL) and incubated in the dark at room temperature (30 min), followed by three washes with PBS and no final aspiration. Plates were foil sealed.

Where [1] appears, read: Homo sapiens, IMR-90, 72 h, Senescent, log (dose) [M] -5, 72 h, mean n=3 (Fig 3C), read-out: Mean % Cell Survival.
Setting [2] is: Homo sapiens, IMR-90, 72 h, Senescent, log (dose) [M] -5.33, 72 h, mean n=3 (Fig 3C), read-out: Mean % Cell Survival.
Setting [3] is: Homo sapiens, IMR-90, 72 h, Senescent, log (dose) [M] -5.66, 72 h, mean n=3 (Fig 3C), read-out: Mean % Cell Survival.
[4] abbreviates: Homo sapiens, IMR-90, 72 h, Senescent, log (dose) [M] -6, 72 h, mean n=3 (Fig 3C), read-out: Mean % Cell Survival.
[5] abbreviates: Homo sapiens, IMR-90, 72 h, Senescent, log (dose) [M] -6.33, 72 h, mean n=3 (Fig 3C), read-out: Mean % Cell Survival.
Setting [6] is: Homo sapiens, IMR-90, 72 h, Senescent, log (dose) [M] -6.66, 72 h, mean n=3 (Fig 3C), read-out: Mean % Cell Survival.
Setting [7] is: Homo sapiens, IMR-90, 72 h, Senescent, log (dose) [M] -7, 72 h, mean n=3 (Fig 3C), read-out: Mean % Cell Survival.
Where [8] appears, read: Homo sapiens, IMR-90, 72 h, Senescent, log (dose) [M] -7.33, 72 h, mean n=3 (Fig 3C), read-out: Mean % Cell Survival.
Setting [9] is: Homo sapiens, IMR-90, 72 h, Senescent, log (dose) [M] -7.66, 72 h, mean n=3 (Fig 3C), read-out: Mean % Cell Survival.
Where [10] appears, read: Homo sapiens, IMR-90, 72 h, Senescent, log (dose) [M] -8, 72 h, mean n=3 (Fig 3C), read-out: Mean % Cell Survival.
Setting [11] is: Homo sapiens, IMR-90, Senescent cells, log (dose) [M] -7.33, individual replicates, SUP FIG 4C, read-out: % Cell Survival.
[12] abbreviates: Homo sapiens, IMR-90, Senescent cells, log (dose) [M] -7.66, individual replicates, SUP FIG 4C, read-out: % Cell Survival.
Setting [13] is: Homo sapiens, IMR-90, Senescent, log (dose) [M] -7.66, read-out: % Cell Survival.
Setting [14] is: Homo sapiens, IMR-90, Senescent, log (dose) [M] -5.66, read-out: % Cell Survival.
[15] abbreviates: Homo sapiens, IMR-90, Senescent, log (dose) [M] -6, read-out: % Cell Survival.
The mark [16] stands for this setting: Homo sapiens, IMR-90, Senescent, log (dose) [M] -8, read-out: % Cell Survival.

As a reminder, the IC50 is the point on the concentration scale where inhibition reaches its midpoint. As to `COc1cc(O)c2c(=O)cc(-c3ccc(OC)c(-c4c(O)cc(O)c5c(=O)cc(-c6ccc(O)cc6)oc45)c3)oc2c1` [Ginkgetin, ginkgetin], the viability at 10 µM is, setting by setting: under setting [1], 5.11%; (Homo sapiens, IMR-90, senescence, log (dose) [M] -5, individual replicates (Fig 3D), read-out: % Cell Survival) 4.7%. Besides, the viability at 4.677 µM under setting [2] amounted to 9.69%. Moreover, the viability at 2.188 µM is, setting by setting: under setting [3], 80%; (Homo sapiens, IMR-90, senescence, log (dose) [M] -5.66, individual replicates (Fig 3D), read-out: % Cell Survival) 71.2%. Under setting [4], the viability at 1 µM came out at 93.5%. The viability at 0.4677 µM under setting [5] was 108%. For the same compound, the viability at 0.2188 µM under setting [6] was 95.6%. For the same compound, the viability at 0.1 µM under setting [7] is 105%. Further, the viability at 0.04677 µM reads like this: under setting [8], 113%; (Homo sapiens, IMR-90, senescence, log (dose) [M] -7.33, individual replicates (Fig 3D), read-out: % Cell Survival) 116%. Besides, the viability at 0.02188 µM under setting [9] amounted to 105%. Besides, the viability at 0.01 µM under setting [10] came to 110%. Further, the IC50 (Homo sapiens, IMR-90, OIS model, 4-OHT-induced IMR90 ER:RAS, nuclei count, 72 h) was 2.6 µM. Further, under “OIS IMR90 ER:RAS, Hoechst nuclei count, marginal effect on normal cells”, the “dose showing the clearest senolytic effect” value came out at 4.6 µM. Also, where the note is “OIS IMR90 ER:RAS”, the “senolytic activity (in words)” value is reported as “clear senolytic action”.

As to `Cc1cc2c(C(C)C)c(O)c(O)c(C=O)c2c(O)c1-c1c(C)cc2c(C(C)C)c(O)c(O)c(C=O)c2c1O` [Gossypol, gossypol], the viability at 10 µM under setting [1] was 26.6%. For the same compound, under setting [2], the viability at 4.677 µM came to 121%. Moreover, the viability at 2.188 µM under setting [3] worked out at 156%. The viability at 1 µM under setting [4] was 166%. Also, under setting [5], the viability at 0.4677 µM is 168%. Also, the viability at 0.2188 µM under setting [6] worked out at 188% and the viability at 0.2188 µM (Homo sapiens, IMR-90, Senescent cells, log (dose) [M] -6.66, individual replicates, SUP FIG 4C, read-out: % Cell Survival) is 189%. The viability at 0.1 µM under setting [7] worked out at 130%. The viability at 0.04677 µM runs as follows: under setting [8], 120%; under setting [11], 127%. For the same compound, under setting [9], the viability at 0.02188 µM stood at 145%. The viability at 0.01 µM under setting [10] was determined as 116%.

Take `O=c1c(O)c(-c2ccc(O)cc2)oc2c(O)c(O)cc(O)c12` [Herbacetin, herbacetin]: under setting [1], the viability at 10 µM amounted to 103%. Also, under setting [2], the viability at 4.677 µM is 98.4%. Moreover, the viability at 2.188 µM under setting [3] was 76.1%. Under setting [4], the viability at 1 µM turned out to be 71.6%. Moreover, the viability at 0.4677 µM was found to be 91.9% under setting [5] and 94.7% (Homo sapiens, IMR-90, Senescent cells, log (dose) [M] -6.33, individual replicates, SUP FIG 4C, read-out: % Cell Survival). Further, the viability at 0.2188 µM under setting [6] is 84.1%. The viability at 0.1 µM under setting [7] was found to be 95.7%. Besides, the viability at 0.04677 µM under setting [8] worked out at 90.5% and the viability at 0.04677 µM under setting [11] stood at 85.5%. In addition, the viability at 0.02188 µM reads like this: under setting [9], 97.8%; under setting [12], 100%; under setting [13], 104%. Moreover, the viability at 0.01 µM came out at 97.5% under setting [10] and 91.5% (Homo sapiens, IMR-90, Senescent cells, log (dose) [M] -8, individual replicates, SUP FIG 4C, read-out: % Cell Survival). The “senolytic activity (in words)” value (OIS IMR90 ER:RAS) is “inactive”.

`O=c1c(O)c(-c2ccc(O)cc2O)oc2cc(O)cc(O)c12` [Morin, morin]: the viability at 10 µM runs as follows: under setting [1], 75%; (Homo sapiens, IMR-90, Senescent cells, log (dose) [M] -5, individual replicates, SUP FIG 4C, read-out: % Cell Survival) 75.9%. For the same compound, the viability at 4.677 µM under setting [2] was 90.7%. The viability at 2.188 µM under setting [3] was found to be 96.2% and the viability at 2.188 µM under setting [14] is 55.7%. The viability at 1 µM reads like this: under setting [4], 91.1%; under setting [15], 62.4%. Moreover, the viability at 0.4677 µM under setting [5] turned out to be 91.7%. Further, the viability at 0.2188 µM turned out to be 92.4% under setting [6] and 63.2% (Homo sapiens, IMR-90, Senescent, log (dose) [M] -6.66, read-out: % Cell Survival). Besides, the viability at 0.1 µM under setting [7] was determined as 96.6%. Besides, the viability at 0.04677 µM under setting [8] came to 95.3% and the viability at 0.04677 µM under setting [11] is 87%. In addition, the viability at 0.02188 µM under setting [9] stood at 92.3%, the viability at 0.02188 µM under setting [12] is 91.1% and the viability at 0.02188 µM under setting [13] was found to be 95.7%. Moreover, the viability at 0.01 µM was 94.2% under setting [10] and 93.7% under setting [16]. Moreover, the “senolytic activity (in words)” value (OIS IMR90 ER:RAS) is “inactive”.

Turning to `Cc1cnc(C(=O)N[C@H]2CCCCC/C=C\[C@@H]3C[C@@]3(C(=O)NS(=O)(=O)C3CC3)NC(=O)[C@@H]3C[C@@H](Oc4nc5ccccc5c5ccccc45)CN3C2=O)cn1` [Paritaprevir, paritaprevir, reference compound], the viability at 10 µM came to 69.5% under setting [1] and 115% (Homo sapiens, IMR-90, Senescent, log (dose) [M] -5, read-out: % Cell Survival). Besides, the viability at 4.677 µM reads like this: under setting [2], 86.5%; (Homo sapiens, IMR-90, Senescent cells, log (dose) [M] -5.33, individual replicates, SUP FIG 4C, read-out: % Cell Survival) 87.6%; (Homo sapiens, IMR-90, Senescent, log (dose) [M] -5.33, read-out: % Cell Survival) 110%. The viability at 2.188 µM worked out at 70.9% under setting [3] and 113% under setting [14]. The viability at 1 µM by setting is: under setting [4], 67.9%; under setting [15], 105%. Further, the viability at 0.4677 µM by setting is: under setting [5], 78.9%; (Homo sapiens, IMR-90, Senescent, log (dose) [M] -6.33, read-out: % Cell Survival) 111%. In addition, under setting [6], the viability at 0.2188 µM was determined as 76.2%. In addition, the viability at 0.1 µM under setting [7] turned out to be 79.8%; the viability at 0.1 µM (Homo sapiens, IMR-90, Senescent cells, log (dose) [M] -7, individual replicates, SUP FIG 4C, read-out: % Cell Survival) came out at 75%; the viability at 0.1 µM (Homo sapiens, IMR-90, Senescent, log (dose) [M] -7, read-out: % Cell Survival) turned out to be 112%. Further, the viability at 0.04677 µM by setting is: under setting [8], 84.7%; (Homo sapiens, IMR-90, Senescent, log (dose) [M] -7.33, read-out: % Cell Survival) 118%. Also, under setting [9], the viability at 0.02188 µM was determined as 86.9%. Further, the viability at 0.01 µM reads like this: under setting [10], 70.3%; under setting [16], 107%.
